Assay results: patent US9809574B2, “Isoindoline or isoquinoline compounds, a process for their preparation and pharmaceutical compositions containing them” (LES LABORATOIRES SERVIER, priority 2013, dated 2017)
Counter-ions that a name gives are not always drawn.

What was measured:
[1] = system: RS4; 11 leukaemia cell line; experiment: In vitro cytotoxicity, Microculture Tetrazolium Assay (MTT); format: cell-based; details: Homo sapiens, 11 cells exposed for 48 hours
Method: The cytotoxicity studies were carried out on the RS4; 11 leukaemia cell line and on H146 small Cell Lung Carcinoma cell line. The cells are distributed onto microplates and exposed to the test compounds for 48 hours. The cell viability is then quantified by a colorimetric assay, the Microculture Tetrazolium Assay (Cancer Res., 1987, 47, 939-942).

Bcl-2 protein = Bcl-2 protein (histag-Bcl-2, UniProtKB P10415) (Homo sapiens (Human), UniProt P10415); experiment: Inhibition of Bcl-2 by the fluorescence polarisation technique; format: binding; details: for IC50: fluorescence polarisation test, incubation for 2 hours, read-out: IC50 (nM) Bcl-2 FP
Text: For partial inhibitors, the percentage fluorescence polarisation inhibition for a given concentration of the test compound is indicated.

Chain of Bcl-2 protein (P10415 whole entry): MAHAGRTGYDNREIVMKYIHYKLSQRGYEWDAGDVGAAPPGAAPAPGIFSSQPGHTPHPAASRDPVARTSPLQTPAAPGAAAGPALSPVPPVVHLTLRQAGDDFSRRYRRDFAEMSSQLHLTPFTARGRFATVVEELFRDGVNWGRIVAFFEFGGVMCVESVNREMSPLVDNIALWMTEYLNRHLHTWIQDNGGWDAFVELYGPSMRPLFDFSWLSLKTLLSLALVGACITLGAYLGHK

Compound	IC50 (Bcl-2 protein) [nM]	inhibition at 3.3 µM (Bcl-2 protein; partial inhibitor, concentration of test compound 3.3 μM, read-out: percentage fluorescence polarisation inhibition (Bcl-2 FP)) [%]	IC50 [1] [nM]
C[C@@H]1Cc2ccccc2CN1C(=O)c1cc2c(cc1-c1cc(C(=O)N(C)c3ccc(O)cc3)c3n1CCCC3)CCN(C(=O)Oc1ccc(N)cc1)C2 [Example 58, 4-Aminophenyl 6-{1-[(4-hydroxyphenyl)(methyl)carbamoyl]-5,6,7,8-tetrahydroindolizin-3-yl}-7-[(3R)-3-methyl-1,2,3,4-tetrahydroisoquinoline-2-carbonyl]-1,2,3,4-tetrahydroisoquinoline-2-carboxylate]	4.2	–	3.3
Cc1c(C(=O)N(C)c2ccc(O)cc2)cc(-c2cc3c(cc2C(=O)N2Cc4ccccc4C[C@H]2C)CN(C(=O)Oc2ccc(Cl)cc2)C3)n1C [Example 105, 4-Chlorophenyl 5-{4-[(4-hydroxyphenyl)(methyl)carbamoyl]-1,5-dimethyl-1H-pyrrol-2-yl}-6-[(3R)-3-methyl-1,2,3,4-tetrahydroisoquinoline-2-carbonyl]-2,3-dihydro-1H-isoindole-2-carboxylate]	7.3	–	31
Cc1c(C(=O)N(C)c2ccc(O)cc2)cc(-c2cc3c(cc2C(=O)N2Cc4ccccc4C[C@H]2CN2CCOCC2)CN(C(=O)Oc2cccc(C#N)c2)CC3)n1C [Example 560, 3-Cyanophenyl 6-{4-[(4-hydroxyphenyl)(methyl)carbamoyl]-1,5-dimethyl-1H-pyrrol-2-yl}-7-[(3S)-3-(morpholin-4-ylmethyl)-1,2,3,4-tetrahydroisoquinoline-2-carbonyl]-1,2,3,4-tetrahydroisoquinoline-2-carboxylate]	8.8	–	70
C[C@@H]1Cc2ccccc2CN1C(=O)c1cc2c(cc1-c1cc(C(=O)N(C)c3ccc(O)cc3)c3n1CCCC3)CN(CCCc1ccccc1)C2 [Example 30, N-(4-Hydroxyphenyl)-N-methyl-3-{6-[(3R)-3-methyl-1,2,3,4-tetrahydroisoquinoline-2-carbonyl]-2-(3-phenylpropyl)-2,3-dihydro-1H-isoindol-5-yl}-5,6,7,8-tetrahydroindolizine-1-carboxamide]	16	–	119
CN(C(=O)c1cc(-c2cc3c(cc2C(=O)N2Cc4ccccc4C[C@H]2CN2CCOCC2)CN(C(=O)NCc2ccccc2)CC3)n2c1CCCC2)c1ccc(O)cc1 [Example 78, N-Benzyl-6-{1-[(4-hydroxyphenyl)(methyl)carbamoyl]-5,6,7,8-tetrahydroindolizin-3-yl}-7-[(3S)-3-(morpholin-4-ylmethyl)-1,2,3,4-tetrahydroisoquinoline-2-carbonyl]-1,2,3,4-tetrahydroisoquinoline-2-carboxamide]	4.4	–	142
Cc1c(C(=O)N(C)c2ccc(O)cc2)cc(-c2cc3c(cc2C(=O)N2Cc4ccccc4C[C@H]2C)CN(C(=O)Oc2ccccc2)CC3)n1C [Example 68, Phenyl 6-{4-[(4-hydroxyphenyl)(methyl)carbamoyl]-1,5-dimethyl-1H-pyrrol-2-yl}-7-[(3R)-3-methyl-1,2,3,4-tetrahydroisoquinoline-2-carbonyl]-1,2,3,4-tetrahydroisoquinoline-2-carboxylate]	2.9	–	1.8
CN(C(=O)c1cc(-c2cc3c(cc2C(=O)N2Cc4ccccc4C[C@H]2CN2CCOCC2)CNC3)n2c1CCCC2)c1ccc(O)cc1 [Example 7, N-(4-Hydroxyphenyl)-N-methyl-3-{6-[(3S)-3-(morpholin-4-ylmethyl)-1,2,3,4-tetrahydroisoquinoline-2-carbonyl]-2,3-dihydro-1H-isoindol-5-yl}-5,6,7,8-tetrahydroindolizine-1-carboxamide; dihydrochloride salt]	–	72	1080
C[C@@H]1Cc2ccccc2CN1C(=O)c1cc2c(cc1-c1cc(C(=O)N(C)c3ccc(O)cc3)c3n1CCCC3)CN(C(=O)N(C)c1ccccc1)C2 [Example 82, 5-{1-[(4-Hydroxyphenyl)(methyl)carbamoyl]-5,6,7,8-tetrahydroindolizin-3-yl}-N-methyl-6-[(3R)-3-methyl-1,2,3,4-tetrahydroisoquinoline-2-carbonyl]-N-phenyl-2,3-dihydro-1H-isoindole-2-carboxamide]	17	–	> 150
COc1cccc(CCC(=O)N2CCc3cc(-c4cc(C(=O)N(C)c5ccc(O)cc5)c(C)n4C)c(C(=O)N4Cc5ccccc5C[C@H]4CN4CCOCC4)cc3C2)c1 [Example 135, N-(4-Hydroxyphenyl)-5-{2-[3-(3-methoxyphenyl)propanoyl]-7-[(3S)-3-(morpholin-4-ylmethyl)-1,2,3,4-tetrahydroisoquinoline-2-carbonyl]-1,2,3,4-tetrahydroisoquinolin-6-yl}-N,1,2-trimethyl-1H-pyrrole-3-carboxamide]	8.4	–	99
C[C@@H]1Cc2ccccc2CN1C(=O)c1cc2c(cc1-c1cc(C(=O)N(C)c3ccc(O)cc3)c3n1CCCC3)CNC2 [Example 10, N-(4-Hydroxyphenyl)-N-methyl-3-{6-[(3R)-3-methyl-1,2,3,4-tetrahydroisoquinoline-2-carbonyl]-2,3-dihydro-1H-isoindol-5-yl}-5,6,7,8-tetrahydroindolizine-1-carboxamide]	127	–	–
C[C@@H]1Cc2ccccc2CN1C(=O)c1cc2c(cc1-c1cc(C(=O)N(C)c3ccc(O)cc3)c3n1CCCC3)CCNC2 [Example 27, N-(4-Hydroxyphenyl)-N-methyl-3-{7-[(3R)-3-methyl-1,2,3,4-tetrahydroisoquinoline-2-carbonyl]-1,2,3,4-tetrahydroisoquinolin-6-yl}-5,6,7,8-tetrahydroindolizine-1-carboxamide; trifluoroacetic acid salt]	83	–	–
Cc1c(C(=O)N(C)c2ccc(O)cc2)cc(-c2cc3c(cc2C(=O)N2Cc4ccccc4C[C@H]2C)CN(C(=O)Oc2ccc(OCCN(C)C)cc2)CC3)n1C [Example 476, 4-[2-(Dimethylamino)ethoxy]phenyl 6-{4-[(4-hydroxyphenyl)(methyl)carbamoyl]-1,5-dimethyl-1H-pyrrol-2-yl}-7-[(3R)-3-methyl-1,2,3,4-tetrahydroisoquinoline-2-carbonyl]-1,2,3,4-tetrahydroisoquinoline-2-carboxylate]	1.8	–	–

More lines, main results first:

IC50 (Bcl-2 protein) [nM]	inhibition at 3.3 µM (Bcl-2 protein; partial inhibitor, concentration of test compound 3.3 μM, read-out: percentage fluorescence polarisation inhibition (Bcl-2 FP)) [%]	Compound	IC50 [1] [nM]
3.5	–	CCN(C(=O)c1cc(-c2cc3c(cc2C(=O)N2Cc4ccccc4C[C@H]2CN2CCOCC2)CN(C(=O)Cc2ccccc2)CC3)n(C)c1C)c1ccc(O)cc1 [Example 780, N-Ethyl-N-(4-hydroxyphenyl)-1,2-dimethyl-5-{7-[(3S)-3-(morpholin-4-ylmethyl)-1,2,3,4-tetrahydroisoquinoline-2-carbonyl]-2-(2-phenylacetyl)-1,2,3,4-tetrahydroisoquinolin-6-yl}-1H-pyrrole-3-carboxamide]	17
23	–	Cc1c(C(=O)N(C)c2ccc(O)cc2)cc(-c2cc3c(cc2C(=O)N2Cc4ccccc4C[C@H]2CN2CCN(C)CC2)CN(C(=O)C(F)(F)F)CC3)n1C [Example 783, N-(4-Hydroxyphenyl)-N,1,2-trimethyl-5-{7-[(3S)-3-[(4-methylpiperazin-1-yl)methyl]-1,2,3,4-tetrahydroisoquinoline-2-carbonyl]-2-(trifluoroacetyl)-1,2,3,4-tetrahydroisoquinolin-6-yl}-1H-pyrrole-3-carboxamide]	> 150
3.6	–	Cc1c(C(=O)N(C)c2ccc(O)cc2)cc(-c2cc3c(cc2C(=O)N2Cc4ccccc4C[C@H]2C)CN(C(=O)Oc2ccc(CCC(=O)N(C)C)cc2)CC3)n1C [Example 804, 4-[2-(Dimethylcarbamoyl)ethyl]phenyl 6-{4-[(4-hydroxyphenyl)(methyl)carbamoyl]-1,5-dimethyl-1H-pyrrol-2-yl}-7-[(3R)-3-methyl-1,2,3,4-tetrahydroisoquinoline-2-carbonyl]-1,2,3,4-tetrahydroisoquinoline-2-carboxylate]	2.2
4.2	–	Cc1c(C(=O)N(C)c2ccc(O)cc2)cc(-c2cc3c(cc2C(=O)N2Cc4ccccc4C[C@H]2C)CN(C(=O)Cc2ccc(C#N)cc2)CC3)n1C [Example 145, 5-{2-[2-(4-Cyanophenyl)acetyl]-7-[(3R)-3-methyl-1,2,3,4-tetrahydroisoquinoline-2-carbonyl]-1,2,3,4-tetrahydroisoquinolin-6-yl}-N-(4-hydroxyphenyl)-N,1,2-trimethyl-1H-pyrrole-3-carboxamide]	5.5
5.9	–	Cc1c(C(=O)N(C)c2ccc(O)cc2)cc(-c2cc3c(cc2C(=O)N2Cc4ccccc4C[C@H]2C)CN(C(=O)[C@H](N)c2ccccc2)C3)n1C [Example 174, 5-(2-[(2R)-2-Amino-2-phenylacetyl]-6-{[(3R)-3-methyl-3,4-dihydroisoquinolin-2(1H)-yl]carbonyl}-2,3-dihydro-1H-isoindol-5-yl)-N-(4-hydroxyphenyl)-N,1,2-trimethyl-1H-pyrrole-3-carboxamide]	407
5.7	–	Cc1ccc(OC(=O)N2Cc3cc(C(=O)N4Cc5ccccc5C[C@H]4C)c(-c4cc(C(=O)N(C)c5ccc(O)cc5)c5n4CCCC5)cc3C2)cc1 [Example 168, 4-Methylphenyl 5-{1-[(4-hydroxyphenyl)(methyl)carbamoyl]-5,6,7,8-tetrahydroindolizin-3-yl}-6-[(3R)-3-methyl-1,2,3,4-tetrahydroisoquinoline-2-carbonyl]-2,3-dihydro-1H-isoindole-2-carboxylate]	6.6
78	–	Cc1c(C(=O)N(C)c2ccc(O)cc2)cc(-c2cc3c(cc2C(=O)N2Cc4ccccc4C[C@H]2C)CN(C(=O)CN2CCCCC2)C3)n1C [Example 176, 5-{2-[2-(1-Piperidyl)acetyl]-6-[(3R)-3-methyl-1,2,3,4-tetrahydroisoquinoline-2-carbonyl]-2,3-dihydro-1H-isoindol-5-yl}-N-(4-hydroxyphenyl)-N,1,2-trimethyl-1H-pyrrole-3-carboxamide]	–
